Experimental data: the supplement of paper PMC6045584
± gives the standard deviation of the averaged measurements.

Assays:
GEFITINIB [1] = compound: T1, COc1cc2ncnc(Nc3ccc(F)c(Cl)c3)c2cc1OCCCN1CCOCC1 [GEFITINIB]; experiment: area under dose-response curve of surviving fraction (unscaled, Aref=0) (surviving fraction x log10(nM)); higher = more resistant; settings: exposure time: 5 days; dose range 0.5-1000 nM
How it was run: (§1)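 Tumour cell lines in 384-well plates were exposed for five days to eight inhibitor concentrations from 0.5 to 1000 nM. Viability was read by CellTiter-Glo luminescence, normalised to DMSO-only wells, in three screens per line. Dose-response survival curves were fitted to surviving fractions by 3-parameter logistic regression in the drc R package. Area under the curve is the unscaled activity area (Aref = 0) over log10 dose.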

[2] = compound: CC(=O)c1c(C)c2cnc(Nc3ccc(N4CCNCC4)cn3)nc2n(C2CCCC2)c1=O; experiment: as above; settings: exposure time: 5 days; dose range 0.5-1000 nM
How it was run: as §1

YM155 [3] = compound: T2, COCC[n+]1c2c(n(Cc3cnccn3)c1C)C(=O)c1ccccc1C2=O [YM155]; experiment: as above; settings: exposure time: 5 days; dose range 0.5-1000 nM
How it was run: as §1

[4] = compound: CC(=O)NCC(=O)N1[C@@H]2CC[C@H]1c1ccc(Nc3ncc(C(F)(F)F)c(NC4CCC4)n3)cc12; experiment: as above; settings: exposure time: 5 days; dose range 0.5-1000 nM
How it was run: as §1

CAMPTOTHECIN [5] = compound: T3, CC[C@@]1(O)C(=O)OCc2c1cc1n(c2=O)Cc2cc3ccccc3nc2-1 [CAMPTOTHECIN]; experiment: as above; settings: exposure time: 5 days; dose range 0.5-1000 nM
How it was run: as §1

PACLITAXEL [6] = compound: T4, CC(=O)O[C@H]1C(=O)[C@@]2(C)[C@H]([C@H](OC(=O)c3ccccc3)[C@]3(O)C[C@H](OC(=O)[C@H](O)[C@@H](NC(=O)c4ccccc4)c4ccccc4)C(C)=C1C3(C)C)[C@]1(OC(C)=O)CO[C@@H]1C[C@@H]2O [PACLITAXEL]; experiment: as above; settings: exposure time: 5 days; dose range 0.5-1000 nM
How it was run: as §1

OSI-906 [7] = compound: T5, C[C@]1(O)C[C@@H](c2nc(-c3ccc4ccc(-c5ccccc5)nc4c3)c3c(N)nccn32)C1 [OSI-906]; experiment: as above; settings: exposure time: 5 days; dose range 0.5-1000 nM
How it was run: as §1

GEFITINIB [8] = compound: T1, GEFITINIB; experiment: surviving fraction relative to DMSO-only wells; higher = less growth inhibition; settings: exposure time: 5 days
How it was run: (§2)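 Tumour cell lines in log phase were plated in 384-well plates at 250–500 cells per well, then, after 24 hours, exposed continuously for five days to inhibitors at 0.5, 1, 5, 10, 50, 100, 500 and 1000 nM. Viability came from CellTiter-Glo luminescence, and surviving fraction is that signal normalised to the median of DMSO-only wells. Plates were read after 10 minutes at room temperature, and each line, screened three times, was kept only when replicate Pearson r was >0.7 and median Z' was >0.3.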

[9] = compound: CC(=O)c1c(C)c2cnc(Nc3ccc(N4CCNCC4)cn3)nc2n(C2CCCC2)c1=O; experiment: as above; settings: exposure time: 5 days
How it was run: as §2

YM155 [10] = compound: T2, YM155; experiment: as above; settings: exposure time: 5 days
How it was run: as §2

[11] = compound: CC(=O)NCC(=O)N1[C@@H]2CC[C@H]1c1ccc(Nc3ncc(C(F)(F)F)c(NC4CCC4)n3)cc12; experiment: as above; settings: exposure time: 5 days
How it was run: as §2

CAMPTOTHECIN [12] = compound: T3, CAMPTOTHECIN; experiment: as above; settings: exposure time: 5 days
How it was run: as §2

CARBOPLATIN = compound: O=C(O)C1(C(=O)O)CCC1.[NH2-].[NH2-].[Pt+2] [CARBOPLATIN]; experiment: as above; settings: exposure time: 5 days
How it was run: as §2

PACLITAXEL [13] = compound: T4, PACLITAXEL; experiment: as above; settings: exposure time: 5 days
How it was run: as §2

OSI-906 [14] = compound: T5, OSI-906; experiment: as above; settings: exposure time: 5 days
How it was run: as §2

CELECOXIB = compound: Cc1ccc(-c2cc(C(F)(F)F)nn2-c2ccc(S(N)(=O)=O)cc2)cc1 [CELECOXIB]; experiment: as above; settings: exposure time: 5 days
How it was run: as §2

MDAMB157 BREAST
area under dose-response curve (GEFITINIB [1]): 3.2 | area under dose-response curve [2]: 3.21 | area under dose-response curve (YM155 [3]): 1.53 | area under dose-response curve [4]: 2.36 | area under dose-response curve (CAMPTOTHECIN [5]): 1.4 | area under dose-response curve (PACLITAXEL [6]): 0.654 | area under dose-response curve (OSI-906 [7]): 2.98 | surviving fraction (GEFITINIB [8]; 0.5 nM): 1.04 ± 0.033 | surviving fraction (GEFITINIB [8]; 1 nM): 0.968 ± 0.067 | surviving fraction (GEFITINIB [8]; 5 nM): 0.92 ± 0.057 | surviving fraction (GEFITINIB [8]; 10 nM): 1.01 ± 0.059 | surviving fraction (GEFITINIB [8]; 50 nM): 0.911 ± 0.1 | surviving fraction (GEFITINIB [8]; 100 nM): 1.02 ± 0.053 | surviving fraction (GEFITINIB [8]; 500 nM): 0.991 ± 0.026 | surviving fraction (GEFITINIB [8]; 1000 nM): 0.864 ± 0.066 | surviving fraction ([9]; 0.5 nM): 0.929 ± 0.05 | surviving fraction ([9]; 1 nM): 0.884 ± 0.027 | surviving fraction ([9]; 5 nM): 0.974 ± 0.042 | surviving fraction ([9]; 10 nM): 0.973 ± 0.053 | surviving fraction ([9]; 50 nM): 1.03 ± 0.12 | surviving fraction ([9]; 100 nM): 1.01 ± 0.13 | surviving fraction ([9]; 500 nM): 1 ± 0.12 | surviving fraction ([9]; 1000 nM): 0.902 ± 0.061 | surviving fraction (YM155 [10]; 0.5 nM): 0.958 ± 0.024 | surviving fraction (YM155 [10]; 1 nM): 1.02 ± 0.092 | surviving fraction (YM155 [10]; 5 nM): 0.77 ± 0.037 | surviving fraction (YM155 [10]; 10 nM): 0.799 ± 0.039 | surviving fraction (YM155 [10]; 50 nM): 0.0573 ± 0.024 | surviving fraction (YM155 [10]; 100 nM): 0.031 ± 0.003 | surviving fraction (YM155 [10]; 500 nM): 0.0297 ± 0.0047 | surviving fraction (YM155 [10]; 1000 nM): 0.039 ± 0.0046 | surviving fraction ([11]; 0.5 nM): 0.954 ± 0.082 | surviving fraction ([11]; 1 nM): 0.854 ± 0.042 | surviving fraction ([11]; 5 nM): 0.858 ± 0.081 | surviving fraction ([11]; 10 nM): 0.895 ± 0.064 | surviving fraction ([11]; 50 nM): 0.79 ± 0.11 | surviving fraction ([11]; 100 nM): 0.498 ± 0.068 | surviving fraction ([11]; 500 nM): 0.431 ± 0.077 | surviving fraction ([11]; 1000 nM): 0.216 ± 0.041 | surviving fraction (CAMPTOTHECIN [12]; 0.5 nM): 0.857 ± 0.063 | surviving fraction (CAMPTOTHECIN [12]; 1 nM): 0.911 ± 0.034 | surviving fraction (CAMPTOTHECIN [12]; 5 nM): 0.674 ± 0.061 | surviving fraction (CAMPTOTHECIN [12]; 10 nM): 0.319 ± 0.058 | surviving fraction (CAMPTOTHECIN [12]; 50 nM): 0.26 ± 0.0076 | surviving fraction (CAMPTOTHECIN [12]; 100 nM): 0.247 ± 0.019 | surviving fraction (CAMPTOTHECIN [12]; 500 nM): 0.135 ± 0.0051 | surviving fraction (CAMPTOTHECIN [12]; 1000 nM): 0.118 ± 0.014 | surviving fraction (CARBOPLATIN; 0.5 nM): 1.04 ± 0.1 | surviving fraction (CARBOPLATIN; 1 nM): 0.881 ± 0.024 | surviving fraction (CARBOPLATIN; 5 nM): 1.02 ± 0.11 | surviving fraction (CARBOPLATIN; 10 nM): 1.04 ± 0.066 | surviving fraction (CARBOPLATIN; 50 nM): 1.06 ± 0.12 | surviving fraction (CARBOPLATIN; 100 nM): 0.957 ± 0.056 | surviving fraction (CARBOPLATIN; 500 nM): 0.949 ± 0.084 | surviving fraction (CARBOPLATIN; 1000 nM): 0.943 ± 0.13 | surviving fraction (PACLITAXEL [13]; 0.5 nM): 0.867 ± 0.075 | surviving fraction (PACLITAXEL [13]; 1 nM): 0.674 ± 0.019 | surviving fraction (PACLITAXEL [13]; 5 nM): 0.144 ± 0.022 | surviving fraction (PACLITAXEL [13]; 10 nM): 0.105 ± 0.019 | surviving fraction (PACLITAXEL [13]; 50 nM): 0.0473 ± 0.016 | surviving fraction (PACLITAXEL [13]; 100 nM): 0.0687 ± 0.028 | surviving fraction (PACLITAXEL [13]; 500 nM): 0.0473 ± 0.0098 | surviving fraction (PACLITAXEL [13]; 1000 nM): 0.069 ± 0.011 | surviving fraction (OSI-906 [14]; 0.5 nM): 0.892 ± 0.048 | surviving fraction (OSI-906 [14]; 1 nM): 0.875 ± 0.11 | surviving fraction (OSI-906 [14]; 5 nM): 0.949 ± 0.058 | surviving fraction (OSI-906 [14]; 10 nM): 0.946 ± 0.079 | surviving fraction (OSI-906 [14]; 50 nM): 0.957 ± 0.11 | surviving fraction (OSI-906 [14]; 100 nM): 0.855 ± 0.056 | surviving fraction (OSI-906 [14]; 500 nM): 0.872 ± 0.037 | surviving fraction (OSI-906 [14]; 1000 nM): 0.884 ± 0.086 | surviving fraction (CELECOXIB; 0.5 nM): 0.92 ± 0.089 | surviving fraction (CELECOXIB; 1 nM): 0.989 ± 0.093 | surviving fraction (CELECOXIB; 5 nM): 0.993 ± 0.048 | surviving fraction (CELECOXIB; 10 nM): 0.967 ± 0.045 | surviving fraction (CELECOXIB; 50 nM): 1 ± 0.16 | surviving fraction (CELECOXIB; 100 nM): 0.991 ± 0.04 | surviving fraction (CELECOXIB; 500 nM): 0.984 ± 0.025 | surviving fraction (CELECOXIB; 1000 nM): 0.945 ± 0.07
